Measured values from patent US10150948B2, “Compositions and methods for producing and administering brown adipocytes” (The Regents of the University of California, priority 2013, dated 2018).

Assays:
WAT derived ADMSCs = test: Neutral lipid staining of ADMSCs differentiated on adhesion peptide coated TCPS; type: cell-based, mouse; details: neutral lipid staining after differentiation on peptide coated TCPS
Method: Fat depots from L2G85 (FVB/NJ) or C57BL6/J mice, perigonadal (visceral) or inguinal (subcutaneous) respectively, were isolated post mortem from 3 month old mice. These fat depots were washed with sterile phosphate buffered saline (PBS) for 10 minutes. The tissues were then minced with scissors into fragments smaller than 1 mm and digested in 0.1% type II collagenase (Gibco) in DMEM with 5% bovine serum albumin (BSA) (Fisher) for 1 hr at room temperature (RT) on an orbital shaker. The digest was then filtered through sterile gauze and centrifuged at 400×RCF for 10 minutes. The cell pellet was then suspended in an erythrocyte lysis buffer 155 mM NH4Cl, 5.7 mM K2HPO4, 0.1 mM EDTA in ultrapure water for 10 m minutes. The resulting suspension was then centrifuged at 400×RCF for 10 minutes to pellet the ADMSCs. The resulting ADMSC pellet was suspended in DMEM with 10% fetal bovine serum (FBS) and 1% P/S and plated on TCPS. […]
FIGS. 1A-F: Effects of adhesion ligands ADMSC differentiation. […] C) Quantitative rtPCR analysis of UCP1 expression of WAT derived murine ADMSCs that were differentiated on indicated adhesion substrate coated TCPS (see Tab. […] D) Quantitative rtPCR analysis of UCP1 expression of WAT derived ADMSCs differentiated on mixtures of Ag73 and C16 (n=6). […] F) Quantitative rtPCR analysis of UCP1 expression of WAT derived ADMSCs differentiated on mixtures of Ag73 and Ag32 (n=6).

[1] = tested on: WAT derived murine ADMSCs; test: UCP1 expression (quantitative rtPCR) of ADMSCs differentiated on adhesion peptide coated TCPS; type: cell-based, mouse; details: ADMSCs differentiated on single peptide coated TCPS; vs uncoated TCPS
Method: Fat depots from L2G85 (FVB/NJ) or C57BL6/J mice, perigonadal (visceral) or inguinal (subcutaneous) respectively, were isolated post mortem from 3 month old mice. These fat depots were washed with sterile phosphate buffered saline (PBS) for 10 minutes. The tissues were then minced with scissors into fragments smaller than 1 mm and digested in 0.1% type II collagenase (Gibco) in DMEM with 5% bovine serum albumin (BSA) (Fisher) for 1 hr at room temperature (RT) on an orbital shaker. The digest was then filtered through sterile gauze and centrifuged at 400×RCF for 10 minutes. […]
Purified peptides were suspended at 20 μM in ultrapure water with 1% P/S. In 24 well TC plates (BD Falcon, 353047), 20 μM peptide suspensions were added to each well. […] The adherent and non adherent cells were then counted with the CyQuant kit (Invitrogen).
Tissue samples suspended in RNALater ICE (Ambion) and stored at −20° C. mRNA was isolated from RNALater ICE stabilized tissues or directly from in vitro cultures of monolayers or cell laden hydrogels with Trizol reagent (Ambion). […] Established delta delta CT method was employed to comparatively assess mRNA quantity. […]
FIGS. 1A-F: Effects of adhesion ligands ADMSC differentiation. […] C) Quantitative rtPCR analysis of UCP1 expression of WAT derived murine ADMSCs that were differentiated on indicated adhesion substrate coated TCPS (see Tab. […]

With “CGGKAFDITYVRLKF [C16, α5β1/3 integrin-engaging ligand, laminin γ1 chain peptide with N-terminal CGG]” the lipid accumulation (WAT derived ADMSCs) was “significantly greater lipid accumulation”.

With “CGGRKRLQVQLSIRT [AG73, adhesion ligand for α6 integrins and syndecan-1, laminin a1 chain peptide with N-terminal CGG]” the UCP1 expression [1] was “particularly efficient in driving UCP1 expression”.
